From PMC7660916, “The Salmonella enterica serovar Typhimurium virulence factor STM3169 is a hexuronic acid binding protein component of a TRAP transporter” (Microbiology, 2020)

Molecular target: STM3169 (Salmonella enterica, UniProt Q8ZM02)
Test: intrinsic fluorescence titration; supported by MST (KD […]) and thermal shift
Format: binding

STM3169, sequence (Q8ZM02 entry or part of it): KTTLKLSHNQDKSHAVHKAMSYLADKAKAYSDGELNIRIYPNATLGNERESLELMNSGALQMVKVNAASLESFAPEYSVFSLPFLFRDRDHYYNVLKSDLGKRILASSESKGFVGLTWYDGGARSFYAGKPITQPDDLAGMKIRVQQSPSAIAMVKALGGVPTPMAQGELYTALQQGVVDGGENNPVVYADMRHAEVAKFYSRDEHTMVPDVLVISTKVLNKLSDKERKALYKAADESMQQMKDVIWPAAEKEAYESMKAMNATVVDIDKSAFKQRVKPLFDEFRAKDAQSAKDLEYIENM

O=C(O)[C@H]1OC(O)[C@H](O)[C@@H](O)[C@@H]1O (stereo partly drawn) [D-glucuronate]
Kd: 0.17 ± 0.077 µM
